Assay results published in US20080125451A1, “VINORELBINE DERIVATIVES” (AMR TECHNOLOGY, INC., priority 2006, published 2008).

System: HeLa Cells
Assay: HeLa GI50 determination (SRB growth inhibition)
Type: cell-based
Details: 48 h; human cervical carcinoma cell line HeLa S-3; 2 days of treatment; sulforhodamine B staining
Experimental: A. HeLa GI50 Determinations
Growth inhibition (GI50) values were measured on the human cervical carcinoma cell line, HeLa S-3, which were selected for growth on plastic. The HeLa cell assay was based on the description of Skehan et al., J. Natl. Cancer Inst., 82:1107-12 (1990), which is hereby incorporated by reference in its entirety. HeLa cells were plated at 2×10^4 cells/well in 96 well plates. One day later, a control plate was fixed by the addition of TCA to 5%. After five rinses with tap water, the plate was air-dried and stored at 4° C. Test compounds were added to the remaining plates at 10-fold dilutions. Two days later, all plates were fixed as described above. Cells were then stained by the addition of 100 μL per well of 0.4% sulforhodamine B (SRB) in 1% acetic acid for 30 min at 4° C. Wells were then quickly rinsed 5× with 1% acetic acid and allowed to air dry. The SRB was then solubilized by the addition of 100 μL per well of unbuffered 10 mM Tris base. Dye was quantified by measuring absorbance at 490 nm on a Molecular Devices microplate reader. Growth inhibition was calculated according to the following equation: GI=100×(T−T0)/(C−T0), where the optical density (OD) of the test well after 2 days of treatment was T, the OD of the wells in the control plate on day 0 was T0 and C was the OD of untreated wells. […]

Structure (SMILES) | GI50 [nM]
CC[C@]12C=CCN3CC[C@@]4(c5cc([C@@]6(C(=O)OC)C[C@H]7CC(C(C)(F)F)CN(Cc8c6[nH]c6ccc(SC)cc86)C7)c(OC)cc5N(C)[C@H]4[C@@](O)(C(=O)OC)[C@@H]1OC(C)=O)[C@@H]32 (some centres unmarked) [Example 12, 11′-(Methylsulfanyl)vinflunine] | 6.93
CCc1ccc2[nH]c3c(c2c1)CN1CC(C(C)(F)F)C[C@@H](C1)C[C@]3(C(=O)OC)c1cc2c(cc1OC)N(C)[C@H]1[C@@](O)(C(=O)OC)[C@H](OC(C)=O)[C@]3(CC)C=CCN4CC[C@]21[C@@H]43 (some centres unmarked) [Example 3, 11′-Ethylvinflunine] | 170
